Measurements: ChEMBL document CHEMBL5614385, “A peptide-salinomycin conjugate with a bystander effect reduces the stemness characteristics of ovarian cancer cells and enhances drug sensitivity” (Eur J Med Chem, 2024)
Calls of active or inactive are those of the source. The calls are words filed in the database; no cut-off is given here. Non-standard residues stand in square brackets, D forms with d. Residues, ends and D or L forms follow the SMILES beside them. Sar = CNCC(=O)O

How the values were obtained:
SK-OV-3 [1] = test: Inhibition of tumor sphere formation in agarose-treated human SK-OV-3 cells assessed as fold decrease in number of formed spheres by imaging analysis; assay type: functional
MKN-45 = test: Cytotoxicity against human MKN-45 cells assessed as inhibition of cell growth incubated for 72 hrs by CCK8 assay; assay type: functional, cell-based; conditions: MKN-45, 72 h
CAL-27 = test: Cytotoxicity against human CAL-27 cells assessed as inhibition of cell growth incubated for 72 hrs by CCK8 assay; assay type: functional, cell-based; conditions: CAL-27, 72 h
SK-OV-3 [2] = test: Antitumor activity against CD44 positive human SK-OV-3 cells assessed as reduction in cell viability incubated for 72 hrs by CCK8 assay; assay type: functional, cell-based; conditions: SK-OV-3, 72 h
HCCLM3 = test: Cytotoxicity against human HCCLM3 cells assessed as inhibition of cell growth incubated for 72 hrs by CCK8 assay; assay type: functional, cell-based; conditions: HCCLM3, 72 h
DU-145 = test: Cytotoxicity against human DU-145 cells assessed as inhibition of cell growth incubated for 72 hrs by CCK8 assay; assay type: functional, cell-based; conditions: DU-145, 72 h
SK-OV-3 [3] = test: Inhibition of cell migration in human SK-OV-3 cells at 5 uM incubated for 24 hrs by microscope based wound healing assay; assay type: functional
A-431 = test: Cytotoxicity against human A-431 cells assessed as inhibition of cell growth incubated for 72 hrs by CCK8 assay; assay type: functional, cell-based; conditions: A-431, 72 h
ACHN = test: Cytotoxicity against human ACHN cells assessed as inhibition of cell growth incubated for 72 hrs by CCK8 assay; assay type: functional, cell-based
A2780 = test: Antitumor activity against CD44 negative human A2780 cells assessed as reduction in cell viability incubated for 72 hrs by CCK8 assay; assay type: functional, cell-based; conditions: A2780, 72 h
HeLa = test: Cytotoxicity against human HeLa cells assessed as inhibition of cell growth incubated for 72 hrs by CCK8 assay; assay type: functional, cell-based
SK-OV-3/CDDP [4] = test: Cytotoxicity against human SK-OV-3/CDDP cells assessed as inhibition of cell proliferation incubated for 72 hrs by CCK8 assay; assay type: functional, cell-based
[5] = biological target: Vascular endothelial growth factor receptor 2 (Homo sapiens) (UniProt P35968); test: Inhibition of VEGFR2 phosphorylation in human SK-OV-3 cells at 5 uM incubated for 24 hrs by Western blot analysis; assay type: cell-based
A549 = test: Cytotoxicity against human A549 cells assessed as inhibition of cell growth incubated for 72 hrs by CCK8 assay; assay type: functional, cell-based; conditions: A549, 72 h
MCF7 = test: Cytotoxicity against human MCF7 cells assessed as inhibition of cell growth incubated for 72 hrs by CCK8 assay; assay type: functional, cell-based; conditions: MCF7, 72 h
MDA-MB-231 = test: Cytotoxicity against human MDA-MB-231 cells assessed as inhibition of cell growth incubated for 72 hrs by CCK8 assay; assay type: functional, cell-based; conditions: MDA-MB-231, 72 h
SK-OV-3 [6] = test: Inhibition of AKT phosphorylation in human SK-OV-3 cells at 5 uM incubated for 24 hrs by Western blot analysis; assay type: cell-based
MIA PaCa-2 = test: Cytotoxicity against human MIA PaCa-2 cells assessed as inhibition of cell growth incubated for 72 hrs by CCK8 assay; assay type: functional, cell-based; conditions: MIA PaCa-2, 72 h
SK-OV-3 [7] = test: Inhibition of cell invasion in human SK-OV-3 cells incubated for 24 hrs by crystal violet staining based transwell invasion assay; assay type: functional; conditions: dose 5.0 µM
SK-OV-3 [8] = test: Inhibition of cell migration in human SK-OV-3 cells at 10 uM incubated for 24 hrs by microscope based wound healing assay; assay type: functional
SK-OV-3/CDDP [9] = test: Sensitization of cisplatin-induced antiproliferative activity against human SK-OV-3/CDDP cells assessed as reduction in cell viability at 1 uM incubated for 72 hrs by CCK8 assay; assay type: functional, cell-based
SK-OV-3 [10] = test: Downregulation of CD133 expression in human SK-OV-3 tumor stem cells at 10 uM incubated for 36 hrs by flow cytometric analysis; assay type: functional, cell-based
SK-OV-3 [11] = test: Inhibition of cell invasion in human SK-OV-3 cells at 5 uM incubated for 24 hrs by crystal violet staining based transwell invasion assay; assay type: functional
SK-OV-3 [12] = test: Effect on CD44 expression in CD44 positive human SK-OV-3 cells; assay type: functional, cell-based

Sequence of Vascular endothelial growth factor receptor 2 (Homo sapiens) (P35968 whole entry): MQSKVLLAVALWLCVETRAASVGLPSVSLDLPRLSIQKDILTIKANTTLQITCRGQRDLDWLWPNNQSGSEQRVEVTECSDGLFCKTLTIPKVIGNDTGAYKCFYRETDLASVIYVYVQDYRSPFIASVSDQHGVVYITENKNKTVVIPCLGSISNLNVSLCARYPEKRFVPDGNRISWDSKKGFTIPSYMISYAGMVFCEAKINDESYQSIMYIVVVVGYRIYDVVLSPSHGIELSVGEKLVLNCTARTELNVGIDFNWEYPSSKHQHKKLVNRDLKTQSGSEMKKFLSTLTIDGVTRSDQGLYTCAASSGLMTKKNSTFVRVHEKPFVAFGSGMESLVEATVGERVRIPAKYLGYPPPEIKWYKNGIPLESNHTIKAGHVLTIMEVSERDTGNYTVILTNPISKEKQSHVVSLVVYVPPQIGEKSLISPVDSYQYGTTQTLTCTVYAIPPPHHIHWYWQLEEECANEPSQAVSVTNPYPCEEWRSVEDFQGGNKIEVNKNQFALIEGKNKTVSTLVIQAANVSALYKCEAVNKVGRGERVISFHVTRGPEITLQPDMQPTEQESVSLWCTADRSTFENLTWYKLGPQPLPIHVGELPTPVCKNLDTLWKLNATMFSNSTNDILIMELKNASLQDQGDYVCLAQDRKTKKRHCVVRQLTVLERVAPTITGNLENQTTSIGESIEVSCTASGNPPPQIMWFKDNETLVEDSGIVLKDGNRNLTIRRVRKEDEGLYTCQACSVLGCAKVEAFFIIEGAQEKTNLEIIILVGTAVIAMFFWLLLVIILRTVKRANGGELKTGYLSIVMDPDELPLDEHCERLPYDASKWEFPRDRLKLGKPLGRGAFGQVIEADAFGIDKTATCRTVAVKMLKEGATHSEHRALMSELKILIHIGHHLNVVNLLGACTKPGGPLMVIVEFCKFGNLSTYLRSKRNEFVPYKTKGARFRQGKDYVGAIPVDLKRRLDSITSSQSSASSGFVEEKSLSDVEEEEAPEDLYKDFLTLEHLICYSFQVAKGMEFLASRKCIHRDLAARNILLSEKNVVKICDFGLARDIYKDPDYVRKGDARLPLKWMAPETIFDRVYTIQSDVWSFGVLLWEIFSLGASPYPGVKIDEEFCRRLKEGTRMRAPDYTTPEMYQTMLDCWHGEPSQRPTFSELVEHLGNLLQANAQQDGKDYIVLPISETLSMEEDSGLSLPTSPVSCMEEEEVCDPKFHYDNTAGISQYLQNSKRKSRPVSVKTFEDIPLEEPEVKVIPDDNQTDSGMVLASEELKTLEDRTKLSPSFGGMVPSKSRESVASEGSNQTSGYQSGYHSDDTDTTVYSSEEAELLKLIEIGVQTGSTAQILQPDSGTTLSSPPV

inhibition [5]	Compound	IC50 (MKN-45) [µM]	IC50 (CAL-27) [µM]	IC50 (SK-OV-3 [2]) [µM]	IC50 (HCCLM3) [µM]	IC50 (DU-145) [µM]	inhibition (SK-OV-3 [3])	IC50 (A-431) [µM]	IC50 (ACHN) [µM]	IC50 (A2780) [µM]	IC50 (HeLa) [µM]	IC50 (SK-OV-3/CDDP [4]) [µM]	IC50 (A549) [µM]	IC50 (MCF7) [µM]	IC50 (MDA-MB-231) [µM]	inhibition (SK-OV-3 [6])	IC50 (MIA PaCa-2) [µM]	further results
Active	CC[C@@H](C(=O)[O-])C1CC[C@H](C)C([C@@H](C)[C@H](O)[C@H](C)C(=O)[C@H](CC)C2O[C@]3(C=C[C@@H](NC(=O)CCSSc4ccccc4)[C@]4(CC[C@@](C)(C5CC[C@](O)(CC)[C@H](C)O5)O4)O3)[C@H](C)C[C@@H]2C)O1.[Na+] (stereo partly drawn)	1.47	3.73	4.39	1.33	30.9	Active	2.95	7.37	0.11	3.76	4.45	14.4	8.23	0.98	Active	1.14	fold change (FC) (SK-OV-3 [1]): 4.6; inhibition (SK-OV-3 [7]): Dose-Dependent Effect
Active	CC(=O)N[C@@H](CCCCN)C(=O)N1CCC[C@H]1C(=O)N[C@@H](CO)C(=O)N[C@@H](CO)C(=O)N1CCC[C@H]1C(=O)N1CCC[C@H]1C(=O)N[C@@H](CCC(=O)O)C(=O)N[C@@H](CCC(=O)O)C(=O)N(C)CC(=O)N(C)CC(=O)N(C)CC(=O)N(C)CC(=O)N(C)CC(=O)N(C)CC(=O)N(C)CC(=O)N(C)CC(=O)N(C)CC(=O)N(C)CC(=O)N[C@@H](C)C(N)=O (Ac-KPSSPPEE[Sar][Sar][Sar][Sar][Sar][Sar][Sar][Sar][Sar][Sar]A-NH2)	–	–	–	–	–	–	–	–	–	–	–	–	–	–	Active	–	–

Compound	inhibition [5]	IC50 (MKN-45) [µM]	IC50 (CAL-27) [µM]	IC50 (SK-OV-3 [2]) [µM]	IC50 (HCCLM3) [µM]	IC50 (DU-145) [µM]	inhibition (SK-OV-3 [3])	IC50 (A-431) [µM]	IC50 (ACHN) [µM]	IC50 (A2780) [µM]	IC50 (HeLa) [µM]	IC50 (SK-OV-3/CDDP [4]) [µM]	IC50 (A549) [µM]	IC50 (MCF7) [µM]	IC50 (MDA-MB-231) [µM]	inhibition (SK-OV-3 [6])	IC50 (MIA PaCa-2) [µM]	further results
CC[C@@H](C(=O)[C@@H](C)[C@@H](O)[C@H](C)[C@@H]1O[C@@H]([C@@H](CC)C(=O)O)CC[C@@H]1C)[C@H]1O[C@]2(C=C[C@@H](O)[C@]3(CC[C@@](C)([C@H]4CC[C@](O)(CC)[C@H](C)O4)O3)O2)[C@H](C)C[C@@H]1C [SALINOMYCIN]	Active	6.49	30.2	12.4	7.99	47.1	inactive	5.27	26	0.16	25	10.3	25.1	9.89	0.9	Active	5.03	inhibition (SK-OV-3 [8]): Active; Activity (SK-OV-3/CDDP [9]): Active; Activity (SK-OV-3 [10]): Active; inhibition (SK-OV-3 [11]): Active; Activity (SK-OV-3 [12]): inactive
